{"source": "patent US20020147210A1", "about": "“Methods for delaying recurrence of herpes virus symptoms” (3M Innovative Properties Company, priority 2000, published 2002)", "tested_on": "recurrent herpes genitalis (herpes virus)", "test": "Randomized, double-blind vehicle-controlled clinical study of resiquimod gel formulations topically applied to herpetic lesions of the external genitalia", "type": "in vivo, human", "conditions": "topical, patients with recurrent herpes genitalis, 6 month observation period", "description": "Propylene glycol (700 g) and resiquimod (4-amino-2-ethoxymethyl-α,α-dimethyl-1H-imidazo[4,5-c]quinoline-1-ethanol, 1.4 g) were added to a 1000 mL glass beaker. The resulting mixture was heated (about 55° C.) with stirring until all of the resiquimod was dissolved. The resulting solution was added to the mixing bowl of a ROSS LDM-4 mixer. Triacetin (11,968.7 g) was added to the mixing bowl and the resulting mixture was mixed for 10 minutes at 36 rpm. Colloidal silicon dioxide (1,330.0 g, AEROSIL®200 from Degussa, Frankfurt, Germany) was added in five parts. After each addition the resulting mixture was mixed at ambient pressure for 1 to 2 minutes at 36 rpm and then under vacuum (18 inches of Hg below ambient pressure, […]) for about 9 minutes at 36 rpm. The sides of the mixing bowl and the mixing blades were scraped. The formulation was mixed under vacuum (17 inches of Hg below ambient pressure, […]) for about 10 minutes at 36 rpm. The resulting gel contained 0.01% resiquimod, 5.0% propylene glycol, 9.5% colloidal silicon dioxide, and 85.49% triacetin.\nUsing the method described above, a second formulation was prepared by combining 7.0 g of resiquimod, 700.0 g of propylene glycol, 11963.0 g of triacetin and 1,330.0 g of colloidal silicon dioxide. The resulting gel contained 0.05% resiquimod, 5.0% propylene glycol, 9.5% colloidal silicon dioxide, and 85.45% triacetin.\nA randomized, double-blind vehicle (placebo)-controlled study was performed to evaluate single and multi-weekly doses of the resiquimod formulations prepared above topically applied to herpetic lesions on the skin of the external genitalia.\n52 otherwise healthy patients (20 to 60 years of age, inclusive) with a history of recurrent herpes genitalis (≧6 episodes per year) participated in the study. […] After passing screening, patients were enrolled into a 12-week eligibility period to qualify for treatment by virtue of experiencing a herpetic recurrence. During the eligibility period patients' qualified for the treatment period by coming to the study site for treatment visit one within 24 hours of a recurrence. At this visit patients were stratified by sex and enrolled sequentially into an active treatment or vehicle treatment regimen.\nThe treatment period began with the first treatment visit and ended with the final treatment visit. The treatment groups were 0.05 percent resiquimod containing formulation or formulation alone (vehicle) 1×/week for 4 weeks; 0.05 percent resiquimod containing formulation or formulation alone 2×/week for 3 weeks; 0.01 percent resiquimod formulation or formulation alone 2×/week for 3 weeks; or 0.01 percent resiquimod formulation or formulation alone 3×/week for 3 weeks. […]"}
{"compound": "CCOCc1nc2c(N)nc3ccccc3c2n1CC(C)(C)O", "note": "[Resiquimod, 4-amino-α,α-dimethyl-2-ethoxymethyl-1H-imidazo[4,5-c]quinoline-1-ethanol]", "values": [{"measurement": "Median No. Days to Recurrence after treatment cessation", "setting": "0.01% resiquimod gel, 2×/wk, 3 weeks", "result": 172.5, "unit": "days"}, {"measurement": "Median No. Days to Recurrence after treatment cessation", "setting": "0.01% resiquimod gel, 3×/wk, 3 weeks", "result": ">195", "unit": "days"}, {"measurement": "Median No. Days to Recurrence after treatment cessation", "setting": "0.05% resiquimod gel, 1×/wk, 4 weeks", "result": ">60", "unit": "days"}, {"measurement": "Median No. Days to Recurrence after treatment cessation", "setting": "0.05% resiquimod gel, 2×/wk, 3 weeks", "result": 105, "unit": "days"}]}
